# How the values were obtained:
# Format in all cases: physicochemical
# [1] = Measurement of Δn (refractive index anisotropy), wedge-shaped liquid crystal cell; conditions: at 550 nm and 30° C.; for compounds liable to crystallize estimated from extrapolated values of mixtures with other liquid crystals
# Text: As a method of measuring the Δn, a method using a wedge-shaped liquid crystal cell described on page 202 of the Liquid Crystal Handbook (edited by Liquid Crystal Handbook Editing Committee, published by Maruzen Co., Ltd.) is generally used. In a case of a compound which is liable to crystallize, it is also possible to carry out evaluation with a mixture thereof with other liquid crystals and to estimate Δn from extrapolated values thereof.
# The Δn corresponds to a measurement value at a wavelength of 550 nm at 30° C.
# <Measurement of Δn (Refractive Index Anisotropy)>
# Δn of each of the compounds was measured by a method using a wedge-shaped liquid crystal cell described on page 202 of the Liquid Crystal Handbook (edited by Liquid Crystal Handbook Editing Committee, published by Maruzen Co., Ltd.). In a case of the compound which is liable to crystallize, evaluation with a mixture thereof with other liquid crystals was carried out and Δn was estimated from extrapolated values thereof. The values in the table represent Δn's at 550 nm and 30° C.
# Δn in Comparative Example 1 is a measurement value in a nematic phase.
# [2] = Light fastness test of optically anisotropic film; conditions: film of compound 50 parts with B-2 50 parts; xenon, 5 million lx·h for 50 hours, 63° C., 50% RH, oxygen-blocking; transmittance change at 420 nm
# Description: <Light Fastness Evaluation>
# (Production of Optically Anisotropic Film)
# A coating liquid having the following composition was prepared and applied to a rubbing-treated glass equipped with an alignment film by spin-coating. Each composition was irradiated with ultraviolet rays of 500 mJ/cm^2 through a filter that cuts light having a wavelength of 350 nm or less on a hot plate heated to a temperature until showing a nematic phase, and thereby an optically anisotropic film was produced.
# The produced optically anisotropic film was irradiated with light using a Super Xenon Weather Meter SX75 manufactured by Suga Test Instruments Co., Ltd. Using KU-1000100 manufactured by King Seisakusho Co., Ltd. as a UV cut filter, a light fastness test was conducted by irradiation of 5 million l×h of light for 50 hours under an oxygen-blocking condition. A temperature of the test subject (a temperature inside the test device) was set to 63° C. A relative humidity in the test device was 50% RH.
# A transmittance change of the optically anisotropic film before and after the light fastness test was measured. Light fastness in a case where a transmittance change at 420 nm was less than 5% was evaluated as A, and light fastness in a case where a transmittance change at 420 nm was 5% or more was evaluated as B. As a transmittance change became small, light fastness was more excellent.
# [3] = Solubility evaluation in methyl ethyl ketone; conditions: room temperature (23° C.), precipitation concentration
# Description: Solubility of each of the compounds in methyl ethyl ketone was evaluated. A solution in which the compound was ultrasonically dissolved or dissolved by heating was produced. […] Solutions were produced at various concentrations for each of the compounds, and solubility of the compound was evaluated according to the following criteria, using a concentration at which the compound was precipitated as a precipitation concentration. As a precipitation concentration became higher, solubility of the compound was more excellent.
# A: a precipitation concentration was 20% by mass or more
# B: a precipitation concentration was 10% by mass or more and less than 20% by mass
# C: a precipitation concentration was less than 10% by mass
# [4] = Measurement of solution absorption spectrum (colorability evaluation); conditions: chloroform solution, 1 cm cell; for λmax: wavelength of maximum light absorption coefficient in the region of 300 nm or more; for λ (1000): wavelength showing light absorption coefficient ε of 1000 in the region of 300 nm or more
# Description: <Measurement of Solution Absorption Spectrum (Colorability Evaluation)>
# A solution absorption spectrum of each of the compounds was measured using a spectrophotometer UV-3100PC manufactured by Shimadzu Corporation. Using chloroform as a solvent, a solution in which a predetermined amount of the compound was dissolved was measured in a 1 cm cell, and λmax and λ (1000) were calculated from the obtained spectrum and molecular weight. λmax represents a wavelength showing the maximum light absorption coefficient in the region of 300 nm or more, and λ (1000) represents a wavelength showing a light absorption coefficient ε of 1000 in the region of 300 nm or more. It can be evaluated that as wavelengths of λmax and λ (1000) became smaller (as wavelengths became shorter), colorability of the compound was more inhibited.
# For example, λmax is preferably 310 nm or less. In addition, λ (1000) is preferably 350 nm or less and more preferably 325 nm or less.
Compound,Δn [1],λmax [4] [nm],λ (1000) [4] [nm],Light fastness [2],Solubility [3]
C=CC(=O)OCCc1ccc(C#Cc2ccc(COc3ccc(C#Cc4ccc(CCOC(=O)C=C)cc4)cc3)cc2)cc1 [Compound A-2],0.34,309,327,A (a transmittance change at 420 nm was less than 5%),C (a precipitation concentration was less than 10% by mass)
C=CC(=O)OCCc1ccc(C#Cc2ccc(COc3ccc(C#Cc4ccc(CCOC(=O)C=C)cc4)cc3C(C)(C)C)cc2)cc1 [Compound A-5],0.33,308,329,A (a transmittance change at 420 nm was less than 5%),A (a precipitation concentration was 20% by mass or more)
C=CC(=O)OCCc1ccc(C#Cc2ccc(COc3ccc(C#Cc4ccc(CCOC(=O)C=C)cc4)cc3C(F)(F)F)cc2)cc1 [Compound A-4],0.36,309,325,A (a transmittance change at 420 nm was less than 5%),A (a precipitation concentration was 20% by mass or more)
C=CC(=O)OCCc1ccc(C#Cc2ccc(CCc3ccc(C#Cc4ccc(CCOC(=O)C=C)cc4)cc3)cc2)cc1 [Compound A-1],0.30,309,320,A (a transmittance change at 420 nm was less than 5%),C (a precipitation concentration was less than 10% by mass)
C=CC(=O)OCCc1ccc(C#Cc2ccc(COc3ccc(C#Cc4ccc(CCOC(=O)C=C)cc4)cc3C)cc2)cc1 [Compound A-3],0.34,308,327,A (a transmittance change at 420 nm was less than 5%),B (a precipitation concentration was 10% by mass or more and less than 20% by mass)

# Further lines, with some results ahead:
Δn [1],λmax [4] [nm],λ (1000) [4] [nm],Compound,Light fastness [2],Solubility [3]
0.33,309,339,C=CC(=O)OCCc1ccc(C#Cc2ccc(COc3ccc(C#Cc4ccc(CCOC(=O)C=C)cc4)cc3C(=O)OC(C)(C)C)cc2)cc1 [Compound A-7],A (a transmittance change at 420 nm was less than 5%),A (a precipitation concentration was 20% by mass or more)
0.25,315,364,"CC(=O)OCCCCCCCCCCOc1ccc(C#Cc2ccc(OC(=O)c3ccc(C#Cc4ccc(OCCCCCCCCCCOC(C)=O)c(F)c4)cc3)cc2)cc1F [Compound B-1, reference compound]",B (a transmittance change at 420 nm was 5% or more),C (a precipitation concentration was less than 10% by mass)
0.37,308,343,C=CC(=O)OCCc1ccc(C#Cc2ccc(COc3ccc(C#Cc4ccc(CCOC(=O)C=C)cc4)cc3C(=O)OC)cc2)cc1 [Compound A-6],A (a transmittance change at 420 nm was less than 5%),A (a precipitation concentration was 20% by mass or more)
